Data from patent US20120058499A1, “Bioluminescent Detection of Protease Activity” (priority 2010, published 2012).

Tests used:
AMSH = molecular target: T1, AMSH (Homo sapiens, UniProt O95630); test: Platform comparison of DUB substrates, signal to background; format: biochemical; conditions: DUB 10 nM; signal at 30 minutes; Ub-LUC 100 nM, DUB-Glo substrate 20 μM, Ub-AMC/Ub-rho 250 nM
T1 sequence (O95630 1-424): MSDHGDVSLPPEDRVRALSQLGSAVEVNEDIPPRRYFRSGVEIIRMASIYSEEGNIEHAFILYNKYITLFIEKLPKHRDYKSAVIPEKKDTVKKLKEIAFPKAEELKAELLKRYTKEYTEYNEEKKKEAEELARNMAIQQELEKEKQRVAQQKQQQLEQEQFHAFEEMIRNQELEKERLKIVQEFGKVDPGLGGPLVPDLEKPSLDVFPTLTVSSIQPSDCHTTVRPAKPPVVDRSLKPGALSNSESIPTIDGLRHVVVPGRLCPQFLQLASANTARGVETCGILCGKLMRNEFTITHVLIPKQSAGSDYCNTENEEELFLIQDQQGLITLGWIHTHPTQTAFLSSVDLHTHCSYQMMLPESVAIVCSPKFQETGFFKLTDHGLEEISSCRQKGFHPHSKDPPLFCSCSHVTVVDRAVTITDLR
Procedure: (§1) For Ub-AMC and Ub-Rhodamine110, all enzymes were diluted into 50 mM Tris, pH 8.0, 5 mM DTT, 0.05% CHAPS to a final concentration of 10 nM. […] Either Ub-AMC or Ub-Rhodamine110 (final reaction concentration equal to 250 nM) were diluted into 50 mM Tris, pH 8.0, 5 mM DTT, 0.05% (w/v) CHAPS. […] For Ub-Rhodamine110, fluorescence was monitored with filters corresponding to excitation at 485 nm and emission at 531 nm.

Otub2 = molecular target: T2, Otub2 (Homo sapiens, UniProt Q96DC9); test: as above; format: biochemical; conditions: DUB 10 nM; signal at 30 minutes; Ub-LUC 100 nM, DUB-Glo substrate 20 μM, Ub-AMC/Ub-rho 250 nM
T2 sequence (Q96DC9 1-234): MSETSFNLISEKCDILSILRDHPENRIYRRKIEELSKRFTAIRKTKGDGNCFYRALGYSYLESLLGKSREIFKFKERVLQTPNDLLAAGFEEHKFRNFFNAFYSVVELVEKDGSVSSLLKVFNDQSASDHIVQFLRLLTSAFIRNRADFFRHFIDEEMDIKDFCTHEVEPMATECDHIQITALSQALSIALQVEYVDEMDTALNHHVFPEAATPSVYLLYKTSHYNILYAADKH
Procedure: as §1

JosD1 = JosD1 (Homo sapiens, UniProt Q15040); test: as above; format: biochemical; conditions: DUB 10 nM; signal at 30 minutes; Ub-LUC 100 nM, DUB-Glo substrate 20 μM, Ub-AMC/Ub-rho 250 nM
Procedure: as §1

Ataxin3-like = molecular target: T3, Ataxin3-like (Homo sapiens, UniProt Q9H3M9); test: as above; format: biochemical; conditions: DUB 10 nM; signal at 30 minutes; Ub-LUC 100 nM, DUB-Glo substrate 20 μM, Ub-AMC/Ub-rho 250 nM
T3 sequence (Q9H3M9 1-355): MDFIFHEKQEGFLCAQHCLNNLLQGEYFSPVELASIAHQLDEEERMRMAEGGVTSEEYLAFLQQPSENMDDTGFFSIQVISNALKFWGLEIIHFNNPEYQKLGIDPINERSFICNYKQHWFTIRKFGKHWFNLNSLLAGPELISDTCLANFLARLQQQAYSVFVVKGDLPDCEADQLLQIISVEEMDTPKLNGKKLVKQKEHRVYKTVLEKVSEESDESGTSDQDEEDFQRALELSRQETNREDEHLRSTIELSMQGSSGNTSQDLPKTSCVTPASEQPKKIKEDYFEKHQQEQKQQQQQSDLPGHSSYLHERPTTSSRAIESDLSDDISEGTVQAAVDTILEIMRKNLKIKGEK
Procedure: as §1

UCHL5 = molecular target: T4, UCHL5 (Homo sapiens, UniProt Q9Y5K5); test: as above; format: biochemical; conditions: DUB 10 nM; signal at 30 minutes; Ub-LUC 100 nM, DUB-Glo substrate 20 μM, Ub-AMC/Ub-rho 250 nM
T4 sequence (Q9Y5K5 1-329): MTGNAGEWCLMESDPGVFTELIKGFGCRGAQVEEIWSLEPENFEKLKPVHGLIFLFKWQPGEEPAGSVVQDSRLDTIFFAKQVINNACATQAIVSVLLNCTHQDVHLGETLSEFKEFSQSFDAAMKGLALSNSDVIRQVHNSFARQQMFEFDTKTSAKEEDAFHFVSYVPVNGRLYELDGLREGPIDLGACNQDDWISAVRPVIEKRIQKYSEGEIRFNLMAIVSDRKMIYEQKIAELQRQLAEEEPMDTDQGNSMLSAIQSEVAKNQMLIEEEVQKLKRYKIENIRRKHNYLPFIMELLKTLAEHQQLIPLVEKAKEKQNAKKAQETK
Procedure: as §1

Ataxin3 = Ataxin3 (Homo sapiens, UniProt P54252); test: as above; format: biochemical; conditions: DUB 10 nM; signal at 30 minutes; Ub-LUC 100 nM, DUB-Glo substrate 20 μM, Ub-AMC/Ub-rho 250 nM
Ataxin3, sequence (P54252 whole entry, species assumed): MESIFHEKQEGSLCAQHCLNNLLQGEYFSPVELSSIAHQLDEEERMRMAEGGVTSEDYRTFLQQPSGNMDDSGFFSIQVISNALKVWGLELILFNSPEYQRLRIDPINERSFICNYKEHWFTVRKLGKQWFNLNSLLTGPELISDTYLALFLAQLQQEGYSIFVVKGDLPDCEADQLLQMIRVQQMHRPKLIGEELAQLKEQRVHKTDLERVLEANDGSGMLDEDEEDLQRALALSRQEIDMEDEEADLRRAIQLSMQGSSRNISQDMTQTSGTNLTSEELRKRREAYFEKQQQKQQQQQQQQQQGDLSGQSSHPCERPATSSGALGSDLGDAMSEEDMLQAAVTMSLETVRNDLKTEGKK
Procedure: as §1

USP14 = USP14 (Homo sapiens, UniProt P54578); test: as above; format: biochemical; conditions: DUB 10 nM; signal at 30 minutes; Ub-LUC 100 nM, DUB-Glo substrate 20 μM, Ub-AMC/Ub-rho 250 nM
USP14, sequence (P54578 whole entry, species assumed): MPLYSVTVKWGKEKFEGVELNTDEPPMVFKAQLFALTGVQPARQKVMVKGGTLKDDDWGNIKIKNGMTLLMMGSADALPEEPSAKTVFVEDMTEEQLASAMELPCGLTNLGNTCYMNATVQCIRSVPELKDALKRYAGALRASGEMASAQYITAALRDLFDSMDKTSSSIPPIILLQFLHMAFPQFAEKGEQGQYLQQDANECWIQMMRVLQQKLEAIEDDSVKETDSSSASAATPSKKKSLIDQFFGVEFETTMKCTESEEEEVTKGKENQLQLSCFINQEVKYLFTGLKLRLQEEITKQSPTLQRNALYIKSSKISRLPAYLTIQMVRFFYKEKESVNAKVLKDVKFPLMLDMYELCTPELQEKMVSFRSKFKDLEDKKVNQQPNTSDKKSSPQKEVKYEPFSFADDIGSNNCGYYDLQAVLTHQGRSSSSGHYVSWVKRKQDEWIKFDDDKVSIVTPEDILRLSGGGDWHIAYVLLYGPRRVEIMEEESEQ
Procedure: as §1

JosD2 = molecular target: T5, JosD2 (Homo sapiens, UniProt Q8TAC2); test: as above; format: biochemical; conditions: DUB 10 nM; signal at 30 minutes; Ub-LUC 100 nM, DUB-Glo substrate 20 μM, Ub-AMC/Ub-rho 250 nM
T5 sequence (Q8TAC2 1-188): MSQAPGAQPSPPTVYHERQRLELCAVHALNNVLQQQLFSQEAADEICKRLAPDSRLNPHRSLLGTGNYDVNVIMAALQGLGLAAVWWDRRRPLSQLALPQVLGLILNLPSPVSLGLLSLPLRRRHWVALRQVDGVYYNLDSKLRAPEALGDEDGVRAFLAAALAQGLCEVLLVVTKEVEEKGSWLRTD
Procedure: as §1

[1] = system: Otub2, JosD1, JosD2, AMSH, Ataxin3, Ataxin3-like, UCHL5, USP20, and USP14; test: Substrate comparison on panel of nine isopeptidases; format: biochemical; conditions: seven of nine DUBs (exceptions JosD2 and UCHL5)
Procedure: as §1

isopeptidase T = molecular target: T6, isopeptidase T (Homo sapiens, UniProt P45974); conditions: Dang et al., 1998; cited from earlier work
T6 sequence (P45974 1-858): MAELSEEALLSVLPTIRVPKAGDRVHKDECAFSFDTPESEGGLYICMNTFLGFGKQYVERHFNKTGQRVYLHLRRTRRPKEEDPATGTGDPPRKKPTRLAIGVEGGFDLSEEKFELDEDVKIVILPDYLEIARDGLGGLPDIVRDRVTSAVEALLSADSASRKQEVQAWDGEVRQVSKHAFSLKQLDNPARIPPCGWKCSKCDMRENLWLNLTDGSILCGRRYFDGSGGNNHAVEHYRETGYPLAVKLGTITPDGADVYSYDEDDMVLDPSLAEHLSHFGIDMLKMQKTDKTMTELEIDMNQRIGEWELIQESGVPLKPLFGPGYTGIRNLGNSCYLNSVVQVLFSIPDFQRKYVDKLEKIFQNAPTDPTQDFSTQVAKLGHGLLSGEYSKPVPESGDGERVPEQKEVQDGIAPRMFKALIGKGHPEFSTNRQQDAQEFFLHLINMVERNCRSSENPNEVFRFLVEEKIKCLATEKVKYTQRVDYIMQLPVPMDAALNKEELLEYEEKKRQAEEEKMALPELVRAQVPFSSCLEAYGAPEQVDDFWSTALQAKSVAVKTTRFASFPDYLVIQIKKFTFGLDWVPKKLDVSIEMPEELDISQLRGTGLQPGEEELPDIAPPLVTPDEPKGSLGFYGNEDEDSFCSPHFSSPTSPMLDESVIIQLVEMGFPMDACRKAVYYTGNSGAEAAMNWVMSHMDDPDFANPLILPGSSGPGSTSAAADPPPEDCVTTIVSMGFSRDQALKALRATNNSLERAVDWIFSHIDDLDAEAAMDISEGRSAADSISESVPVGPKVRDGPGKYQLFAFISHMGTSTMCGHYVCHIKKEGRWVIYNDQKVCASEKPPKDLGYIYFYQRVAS

| Signal to Background value (AMSH) | Signal to Background value (Otub2) | Signal to Background value (JosD1) | Signal to Background value (UCHL5) | Signal to Background value (USP14) | Signal to Background value (JosD2) | Substance | Signal to Background value (Ataxin3-like) | Signal to Background value (Ataxin3) | detectable activity (S/B>3) [1] | relative catalytic efficiency (kcat/Km), fold higher than AMC derivative of Z-Leu-Arg-Gly-Gly peptide (isopeptidase T) [fold] | detectable activity (S/B>3) ([1]; listed as Ub-Rhodamine110) | detectable activity (S/B>3) ([1]; listed as Ub-rhodamine110) |
| --- | --- | --- | --- | --- | --- | --- | --- | --- | --- | --- | --- | --- |
| 1.0 | 1.2 | 1.1 | 8.1 | 1.0 | 2.1 | ubiquitin-7-amino-4-methylcoumarin [Ub-AMC] | 1.1 | 0.9 | little to no detectable activity | ~8000 | – | – |
| 1.2 | 1.7 | 1.5 | 103 | – | 8.2 | ubiquitin-rhodamine110 [Ub-rho] | 1.6 | 1.3 | – | – | no detectable activity | little to no detectable activity |
